In the OPERA property sets (Mansouri et al. 2018) one finds solubility, logP and log10 OH rate constant (cm³/molecule/s) data, which are given here for 87 compounds.

The solubility is how much of the substance goes into solution per volume. As usually defined, the logP is the decadic logarithm of the partition coefficient of the neutral form, usually between octanol and water. Lower therefore signals a more hydrophilic compound.

In brackets after ≈: the same amount, converted by molar mass.

Details in the first series: not given
In the case of `CCCC(C)C=O` (stereo unspecified), the solubility came to 41.9 mM (≈ 4200 µg/mL).
`c1ccc2c(c1)ccc1cc3ccc4ccccc4c3cc12` registered a logP of 6.54.
On the same count and under the same terms, with `c1ccc(Cn2cncn2)cc1` the figure was 0.92.
On to `O=[N+]([O-])c1ccc(Cl)cc1Cl`, for which the logP is 3.07.
As to `N=C(N)NN=Cc1cccs1`, the logP turned out to be 0.98.
`NC(=S)Nc1cccc2ccccc12` gave a lipophilicity (logP) of 1.65.
Take `CCOc1ccccc1NCc1cnc2nc(N)nc(N)c2c1C`: the logP turned out to be 2.07.
Still for that read-out and setting: then `CN1C(=O)CC(=O)N(c2ccccc2)c2cc(Cl)ccc21`, with 2.12; and `CC1(C2=CCCCC2)C(=O)NC(=O)NC1=O`, with 1.6; and `O=[N+]([O-])c1ccc2c(c1)-c1ccc([N+](=O)[O-])c3cccc-2c13`, with 4.44.
Same read-out and setting: then `ClC=C1C2CC(C(Cl)C2(Cl)Cl)C1(C(Cl)Cl)C(Cl)Cl` (stereo unspecified), with 5.49; and `CNS(=O)(=O)c1ccc(C)cc1`, with 1.28.
`OCCOCCOCCO` showed a log partition coefficient (logP) of -1.75.
As for `C1=CCC=C1`, the solubility is 27.2 mM (≈ 1800 µg/mL).
`CC(C)COCCO`: the logP worked out at 0.75.
`CC(=O)c1c(C)c([N+](=O)[O-])c(C(C)(C)C)c([N+](=O)[O-])c1C` yielded a logP of 4.3 and a solubility of 0.00646 mM (≈ 1.9 µg/mL).
Turning to `CCN1CCC(CNC(=O)c2cc(S(=O)(=O)CC)ccc2OC)C1` (stereo unspecified), the logP amounted to 1.31.
Same read-out and setting: then `CCCCCCCCNC(=O)n1cc(F)c(=O)[nH]c1=O`, with 3.9.
`CCOP(=O)(OCC)SCc1ccccc1`: the logP came to 3.21 and the solubility came to 3.84 mM (≈ 1000 µg/mL).
For `CC(C)(O)C(=O)Nc1ccc(Cl)cc1`, the logP was determined as 2.
Same read-out and setting: with `O=[N+]([O-])c1cccc2c1-c1cccc3c([N+](=O)[O-])ccc-2c13` the figure was 4.44.
For `COCCCNc1nc(NCCCOC)nc(SC)n1`, the solubility is 0.332 mM (≈ 100 µg/mL).
The compound `CC(C)(C#N)/N=N/C(C)(C)C#N` had a lipophilicity (logP) of 1.1.
The same measure, in the same setting: then `Cc1cc(C)nc(NC(=O)NS(=O)(=O)c2ccccc2C(=O)OC2COC2)n1`, with 1.1.
`Brc1cccc(O[Si]23OCCN(CCO2)CCO3)c1` returned a log partition coefficient (logP) of 0.26.
Consider `CCCCCCOC(=O)C1=C=CC(=O)NC(=O)N1`, for which the logP was found to be 1.76.
In turn, `CN(C(=O)C(Cl)Cl)c1ccc(OC(=O)c2ccco2)cc1` yielded a logP of 2.24.
On the same count and under the same terms, then `COc1cc(CC(=O)O)ccc1O`, with 0.33; and `CCCCn1ccc(=O)c(O)c1`, with 0.72; and `CSc1ccc(C(N)=S)cc1`, with 2.01.
For `CS(=O)CCCOc1ccc2ccccc2c1` (stereo unspecified), the lipophilicity (logP) was 2.42.
Regarding `CCOC(=O)c1ccccc1S(=O)(=O)NC(=O)Nc1nc(Cl)cc(OC)n1`, the logP was 2.5.
With `CNS(=O)(=O)c1ccc(Cl)cc1`, the logP was 1.92.
On the same count and under the same terms, then `COc1ccc(C=[N+]([O-])C(C)(C)C)cc1`, with 1.21; and `CC(=O)c1ccc2cc(C(C)C(=O)OCC(=O)N(C)C)ccc2c1` (stereo unspecified), with 2.05.
Compound `CCCCCCCCC1(CC)C(=O)NC(=O)NC1=O` displayed a logP of 3.78.
On to `O=P(OCCCl)(OCCCl)OCCCl`, for which the solubility is 24.5 mM (≈ 7000 µg/mL).
`O=C(O)CNC(=O)c1cccc(I)c1` showed a logP of 1.88.
For `CC1=C(C)C(=O)C=CC1=O`, the log partition coefficient (logP) is 1.23.
Still for that read-out and setting: then `Cc1cccc2c1Cc1ccccc1-2`, with 4.97; and `CCCCC(C)=NNC(N)=Nc1ccccc1`, with 2.05; and `O=c1ccn(C2OC(CO)CC2F)c(=O)[nH]1` (stereo unspecified), with -0.87.
On the same count and under the same terms, then `CC1(C)Cc2cccc([N+](=O)[O-])c2O1`, with 3.33.
The same measure, in the same setting: with `CCOC(=O)[C@@H](N)Cc1ccc(O)cc1` the figure was 0.72; with `O=C1c2ccccc2C(=O)c2c(O)cccc21`, 3.52; with `Clc1ccc(Cn2cncn2)cc1Cl`, 2.54.
`CCCC(=NOCC)C1=C(O)CC(CC(C)SCC)CC1=O` (stereo unspecified) showed a lipophilicity (logP) of 4.38.
`OCC1CC(F)C(n2cnc3c(Cl)ncnc32)O1` (stereo unspecified) showed a log partition coefficient (logP) of 0.32.
The compound `CN(C(=O)C(Cl)Cl)c1ccc(OC(=O)c2ccccc2)cc1` yielded a logP of 2.56.
In turn, `CC(=O)c1ccc(NCc2cnc3nc(N)nc(N)c3c2C)cc1` gave a logP of 1.45.
As to `C=CCC1(CC(C)O)C(=O)NC(=O)NC1=O` (stereo unspecified), the logP is -0.05.
`O=C(CCCN1CCC(O)(c2ccc(Cl)cc2)CC1)c1ccc(F)cc1` returned a logP of 4.3.
On the same count and under the same terms, with `Cc1nc2c(N)ncnc2n1C1OC(CO)CC1F` (stereo unspecified) the figure was 0.1.
`CC1=CC(=NNC(=N)N)C=CC1=NNC(N)=S` displayed a lipophilicity (logP) of 1.66.
Compound `c1ccc2sc(SN(C3CCCCC3)C3CCCCC3)nc2c1` displayed a lipophilicity (logP) of 4.8 and a solubility of 0.000163 mM (≈ 0.0564 µg/mL).
Compound `COCCn1cnc2[nH]c(=O)n(C)c(=N)c21` returned a lipophilicity (logP) of -1.49.
`COc1ccc(C=[N+]([O-])c2ccccc2)cc1` registered a logP of 1.94.
Still for that read-out and setting: with `Nc1nc(=O)n([C@H]2CC[C@@H](CO)O2)cc1Br` the figure was -0.5; with `CNCCc1ccccn1`, 0.68.
`CC(=O)Nc1ncc2ncn(COCCO)c2n1` displayed a logP of -1.33.

The same series, now with this note: 20 °C.
In the case of `CCOC(C)(C)CC`, the solubility was determined as 3.44 mM (≈ 400 µg/mL). That is a millimolar value.
Turning to `Clc1ccc(-c2ccc(Cl)cc2)cc1`, the solubility came to 0.000278 mM (≈ 0.062 µg/mL). This solubility lies about 12000-fold lower than the previous one.
On the same count and under the same terms, with `CC(O)CN(CC(C)O)CC(C)O` (stereo unspecified) the figure was 4340 mM (≈ 830000 µg/mL); with `COP(=O)(OC)OC(=CCl)c1cc(Cl)c(Cl)cc1Cl`, 0.0301 mM (≈ 11 µg/mL).

Still in this series, the particulars now being: 22 °C.
Consider `ClC=CCCl` (mixture of isomers), for which the solubility was found to be 14.5 mM.

The series is the same for the next values; noted with them: 23.0 °C.
Take `C=C1[C@H]2CC[C@@H]3[C@H]2C(C)(C)CCC[C@]13C`: the log10 OH rate constant (cm³/molecule/s) was -10.3.

The series is the same for the next values; noted with them: 25 °C.
The compound `Clc1cc(Cl)c(-c2ccccc2Cl)cc1Cl` displayed a solubility of 5.62e-05 mM (≈ 0.0164 µg/mL). This lies in the double-digit nanomolar range.
Same read-out and setting: with `c1ccc2c(c1)ccc1cc3ccc4ccccc4c3cc12` the figure was 3.7e-06 mM (≈ 0.00103 µg/mL).
`CC(C)CCCCCOC(=O)c1ccccc1C(=O)OCCCCCC(C)C` came in with a solubility of 0.00023 mM (≈ 0.09 µg/mL).
With `Cl[C@H]1[C@H](Cl)[C@@H](Cl)[C@@H](Cl)[C@H](Cl)[C@H]1Cl` (racemic), the solubility was determined as 0.00942 mM (≈ 2.74 µg/mL).
In turn, `CCCCOC(=O)c1ccccc1` had a solubility of 0.331 mM (≈ 59 µg/mL).
The same measure, in the same setting: with `Nc1ccc2c(c1)C(=O)c1ccccc1C2=O` the figure was 0.00073 mM (≈ 0.163 µg/mL).
On the same count and under the same terms, with `OCCNc1ccccc1` the figure was 335 mM (≈ 46000 µg/mL).
On the same count and under the same terms, then `CC(C)(C#N)/N=N/C(C)(C)C#N`, with 2.13 mM (≈ 350 µg/mL); and `CC(C)(C)Br`, with 4.38 mM (≈ 600 µg/mL).
In turn, `CCOP(=O)(N=C1SCCS1)OCC` displayed a solubility of 2.55 mM (≈ 650 µg/mL).
The same measure, in the same setting: then `CC1(C)Cc2cccc([N+](=O)[O-])c2O1`, with 0.621 mM (≈ 120 µg/mL); and `Clc1cc2ccccc2cc1Cl`, with 0.00044 mM (≈ 0.0867 µg/mL); and `O=C1c2ccccc2C(=O)c2c(O)cccc21`, with 0.0379 mM (≈ 8.5 µg/mL).
With `c1ccoc1`, the solubility worked out at 147 mM (≈ 10000 µg/mL).
On the same count and under the same terms, with `CC(C)CCO[N+](=O)[O-]` the figure was 3.3 mM (≈ 440 µg/mL); with `CCOC=O`, 1190 mM (≈ 88200 µg/mL).
On to `Cc1ccccc1N`, for which the solubility worked out at 155 mM (≈ 16600 µg/mL).
The compound `c1ccc2nc3ccccc3cc2c1` showed a solubility of 0.214 mM (≈ 38.4 µg/mL). Against the preceding compound, the solubility is about 720-fold lower.
On the same count and under the same terms, then `CNC(=O)Oc1cc(C)cc(C(C)C)c1`, with 0.439 mM (≈ 91 µg/mL); and `Cc1cc(Cl)ccc1O`, with 28.1 mM (≈ 4000 µg/mL).
Same read-out and setting: with `OCC(CO)(CO)COCC(CO)(CO)CO` the figure was 11 mM (≈ 2800 µg/mL).

The same series, now with this note: 25.0 °C.
As for `COC(F)(F)C(F)(F)C(F)(F)F`, the log10 OH rate constant (cm³/molecule/s) was -13.9.
Still for that read-out and setting: then `Cl[C@H]1[C@H](Cl)[C@@H](Cl)[C@@H](Cl)[C@H](Cl)[C@H]1Cl` (racemic), with -12.8; and `O=CC(F)(F)F`, with -12.2.
`Clc1ccc(-c2ccc(Cl)cc2)cc1` registered a log10 OH rate constant (cm³/molecule/s) of -11.7.
The same measure, in the same setting: with `c1cc2ccc3cccc4ccc(c1)c2c34` the figure was -10.3.

Staying with this series, now noted: 30 °C.
`Fc1ccccc1` came in with a solubility of 16 mM (≈ 1540 µg/mL).
